Results as given in patent publication US11000033B2, “Ketone or oxime compound, and herbicide” (NISSAN CHEMICAL CORPORATION, priority 2014, dated 2021).

melting point [°C]	SMILES
192 to 195	CON=C(C)CC1CC(OC)=C(c2c(C)cc(O)cc2C)C1=O (centres unmarked) [6-069]
117 to 119	CON=C(C)CC1CC(OC)=C(c2c(C)cc(OCC(F)(F)F)cc2C)C1=O (centres unmarked) [6-042]
